Assay results: PMC3900303 (Toxicology and applied pharmacology, 2013)
Like-named read-outs stand apart in the source and are kept apart here.

How the values were obtained:
[1] = test system: Human iPSC-derived cardiomyocytes; assay: High-throughput cardiomyocyte beating assay; conditions: for effect on beating parameters at 30 minutes: 30 min exposure; for impact on the shape of the peaks: compounds known to prolong the QT interval; for chronotrope effect / effect on the beating rate / beat rate / effect on spacing between peaks and regularity: general clustering analysis of concentration-response; for effect on the beating rate / beat rate: 3 nM to 30 μM; for effect on beating: at 3 μM; for hormesis-like concentration effect on beating rate: low vs high concentrations
[2] = test system: Human iPSC-derived cardiomyocytes
[3] = test system: Human iPSC-derived cardiomyocytes; assay: Cell viability imaging; format: cell-based; conditions: evaluated 24 hrs after treatment

SMILES: O=c1[nH]cc(F)c(=O)[nH]1 [5-fluoracil]
- effect on beating parameters at 30 minutes [1]: did not have an effect

SMILES: CCCCc1oc2ccccc2c1C(=O)c1cc(I)c(OCCN(CC)CC)c(I)c1 [amiodarone]
- impact on the shape of the peaks [1]: profound impact
- chronotrope effect [1]: negative chronotrope effect

SMILES: COc1ccc(CCN2CCC(Nc3nc4ccccc4n3Cc3ccc(F)cc3)CC2)cc1 [astemizol]
- effect on the beating rate / beat rate [1]: strongly inhibited

SMILES: CC(C)COCC(CN(Cc1ccccc1)c1ccccc1)N1CCCC1 (stereo not drawn) [bepridil]
- effect on the beating rate / beat rate [1]: strongly inhibited

SMILES: CCCCN1CCCCC1C(=O)Nc1c(C)cccc1C (stereo not drawn) [bupivacaine]
- beating profile ([1]; multi-parametric peak pattern): appearance of wide peaks

SMILES: N.N.[Cl][Pt][Cl] [cisplatin, cis-diamineplatinum(II)dichloride]
- effect on beating parameters at 30 minutes [2]: did not have an effect

SMILES: COc1cccc2c1C(=O)c1c(O)c3c(c(O)c1C2=O)C[C@@](O)(C(C)=O)C[C@@H]3O[C@H]1C[C@H](N)[C@H](O)[C@H](C)O1 [daunorubicin]
- effect on beating parameters at 30 minutes [1]: did not have an effect

SMILES: CNCCCN1c2ccccc2CCc2ccccc21 [desipramine]
- impact on the shape of the peaks [1]: profound impact

SMILES: O=C(O)Cc1ccccc1Nc1c(Cl)cccc1Cl [diclofenac]
- effect on beating parameters at 30 minutes [1]: did not have an effect

SMILES: C[C@H]1O[C@@H](O[C@H]2[C@@H](O)C[C@H](O[C@H]3[C@@H](O)C[C@H](O[C@H]4CC[C@@]5(C)[C@H](CC[C@@H]6[C@@H]5CC[C@]5(C)[C@@H](C7=CC(=O)OC7)CC[C@]65O)C4)O[C@@H]3C)O[C@@H]2C)C[C@H](O)[C@@H]1O [digitoxin]
- effect on beating [1]: blocked beating completely

SMILES: C[C@H]1O[C@@H](O[C@H]2[C@@H](O)C[C@H](O[C@H]3[C@@H](O)C[C@H](O[C@H]4CC[C@@]5(C)[C@H](CC[C@@H]6[C@@H]5C[C@@H](O)[C@]5(C)[C@@H](C7=CC(=O)OC7)CC[C@]65O)C4)O[C@@H]3C)O[C@@H]2C)C[C@H](O)[C@@H]1O [digoxin]
- effect on beating [1]: blocked beating completely
- hormesis-like concentration effect on beating rate [1]: increased at low concentrations, but decreased or completely stopped at high doses

SMILES: COc1ccc([C@@H]2Sc3ccccc3N(CCN(C)C)C(=O)[C@@H]2OC(C)=O)cc1 [diltiazem]
- effect on the beating rate / beat rate [1]: strongly inhibited

SMILES: CC(C)N(CCC(C(N)=O)(c1ccccc1)c1ccccn1)C(C)C (stereo not drawn) [disopyramide]
- effect on cell viability [3]: No effect
- effect on the beat rate ([1]; 30 min exposure time-point): no effect
- effect on the peak shape parameters ([1]; 30 min exposure time-point (Figure 2)): clear concentration-dependent effect
- impact on the shape of the peaks [1]: profound impact
- effect on spacing between peaks and regularity [1]: affected
- effect on the beating rate / beat rate [1]: little effect

SMILES: COc1cccc2c1C(=O)c1c(O)c3c(c(O)c1C2=O)C[C@@](O)(C(=O)CO)C[C@@H]3O[C@H]1C[C@H](N)[C@H](O)[C@H](C)O1 [doxorubicin]
- effect on beating parameters at 30 minutes [1]: did not have an effect

SMILES: CC(=O)O.O=C(NCC1CCCCN1)c1cc(OCC(F)(F)F)ccc1OCC(F)(F)F (stereo not drawn) [flecainid acetate]
- effect on spacing between peaks and regularity [1]: affected
- effect on the beating rate / beat rate [1]: little effect

SMILES: CC(C)Cc1ccc(C(C)C(=O)O)cc1 (stereo not drawn) [ibuprofen]
- effect on beating parameters at 30 minutes [1]: did not have an effect

SMILES: CN(C)CCCN1c2ccccc2CCc2ccccc21 [imipramine]
- impact on the shape of the peaks [1]: profound impact

SMILES: CC(C)NCC(O)c1ccc(O)c(O)c1 (stereo not drawn) [isoproterenol]
- chronotrope effect [1]: positive chronotrope effect

SMILES: CCN(CC)CC(=O)Nc1c(C)cccc1C [lidocaine]
- effect on spacing between peaks and regularity [1]: affected
- effect on the beating rate / beat rate [1]: little effect

SMILES: Cc1cnc(NC(=O)C2=C(O)c3ccccc3S(=O)(=O)N2C)s1 [meloxicam]
- effect on beating parameters at 30 minutes [1]: did not have an effect

SMILES: COC(=O)C1=C(C)NC(C)=C(C(=O)OCCN(C)Cc2ccccc2)C1c1cccc([N+](=O)[O-])c1 (stereo not drawn) [nicardipine]
- effect on the beating rate / beat rate [1]: strongly inhibited

SMILES: CC(C)NCC(O)COc1cccc2[nH]ccc12 (stereo not drawn) [pindolol]
- chronotrope effect [1]: negative chronotrope effect

SMILES: CCc1ccc(CCOc2ccc(CC3SC(=O)NC3=O)cc2)nc1 (stereo not drawn) [pioglitazone]
- effect on beating parameters at 30 minutes [1]: did not have an effect

SMILES: CCN(CC)CCNC(=O)c1ccc(N)cc1 [procainamide]
- impact on the shape of the peaks [1]: profound impact

SMILES: C=C[C@H]1C[N@@]2CC[C@H]1C[C@@H]2[C@@H](O)c1ccnc2ccc(OC)cc12 [quinidine]
- impact on the shape of the peaks [1]: profound impact

SMILES: CS(=O)(=O)c1ccc(C2=C(c3ccccc3)C(=O)OC2)cc1 [rofecoxib]
- effect on beating parameters at 30 minutes [1]: did not have an effect

SMILES: CN(CCOc1ccc(CC2SC(=O)NC2=O)cc1)c1ccccn1 (stereo not drawn) [rosiglitazone]
- effect on beating parameters at 30 minutes [1]: did not have an effect

SMILES: OCc1cc(C(O)CNCCCCCCOCCCCc2ccccc2)ccc1O (stereo not drawn) [salmeterol]
- hormesis-like concentration effect on beating rate [1]: increased at low concentrations, but decreased or completely stopped at high doses

SMILES: CC(C)NCC(O)c1ccc(NS(C)(=O)=O)cc1 (stereo not drawn) [sotalol]
- impact on the shape of the peaks [1]: profound impact

SMILES: CC(C)(C)c1ccc(C(O)CCCN2CCC(C(O)(c3ccccc3)c3ccccc3)CC2)cc1 (stereo not drawn) [terfenadine]
- effect on the beating rate / beat rate [1]: strongly inhibited
